Measurements published in PMC6216040, “Repurposing of an old drug: In vitro and in vivo efficacies of buparvaquone against Echinococcus multilocularis” (International Journal for Parasitology: Drugs and Drug …, 2018).
Where two headings read alike, the source gives them in different places.

Tested on: E. multilocularis metacestodes
Assay: PGI-assay: drug-induced damage on in vitro cultured metacestodes (Pathogen Box screening cascade and EC50)
Assay type: cell-based, Echinococcus multilocularis
Details: for PGI release, % of the Tx-100 control, 5d / PGI release, % of the Tx-100 control, 12d / cytotoxicity at 10 µM: 10 µM, singlets; for cytotoxicity at 10 µM / PGI release, % of Tx-100 control at 10 µM: Echinococcus multilocularis
[1] = confirmatory screening at 10 µM in triplicates, 5 days of incubation, values as % of Tx-100 control
[2] = confirmatory screening at 10 µM in triplicates, 12 days of incubation, values as % of Tx-100 control
[3] = 120 h, 5 days of incubation, read-out: PGI release, % of the Tx-100 control, 5d
[4] = 288 h, 12 days of incubation, read-out: PGI release, % of the Tx-100 control, 12d

SMILES | PGI release, % of the Tx-100 control, 5d (5 days of incubation) | PGI release, % of the Tx-100 control, 12d (12 days of incubation) | further results
O=C1O[C@@H](CO)CN1c1cc(F)c(C2=CCN(Cc3ccccc3)CC2)c(F)c1 [MMV687729] | -0.40% | -0.63% | 
CCCCOC(=O)Nc1cc2[nH]c(C3CCCCC3)nc2cc1N1CCCC1 [MMV687730] | 5.43% | 56.57% | PGI release, % of Tx-100 control, average, 5d (1 µM, triplicates, 5 days of incubation): 3.65%; PGI release, % of Tx-100 control, average, 12d (1 µM, triplicates, 12 days of incubation): -3.14%; activity in the screen at 10 μM (confirmed in triplicates, >20% relative PGI release) (10 μM, 5 and 12 days): active; PGI release, % of Tx-100 control, average, 5d [1]: 22.60%; PGI release, % of Tx-100 control, average, 12d [2]: 45.66%
Cc1cc(OCC(=O)NCc2ccccc2)c2cc(Br)ccc2n1 [MMV687747] | -0.47% | 1.30% | 
c1ccc(C[C@@H]2CN(c3nccc(Oc4ccc(-n5ccnc5)cc4)n3)CCN2)cc1 [MMV687749] | 5.87% | 6.61% | 
c1ccc(Oc2ccc(-c3cc(C4CCOCC4)[nH]n3)cc2)cc1 [MMV687762] | -1.81% | 0.46% | 
Cc1cnc(N2CCN[C@@H](Cc3ccccc3)C2)nc1Oc1ccc(-n2ccnc2)cc1 [MMV687765] | 4.75% | 6.17% | 
CC1(C)OB(O)c2ccc(C3=NOC(c4cc(Cl)c(F)c(Cl)c4)(C(F)(F)F)C3)cc21 (stereo not drawn) [MMV687775] | 11.08% | -0.22% | 
Cc1cc(C2=NOC(c3cc(Cl)c(F)c(Cl)c3)(C(F)(F)F)C2)ccc1C(=O)NCc1ccc2c(c1)C(C)(C)OB2O (stereo not drawn) [MMV687776] | 0.60% | 2.49% | 
CC1(C)Cc2c(c(N3CCOCC3)nc3snc(Br)c23)CO1 [MMV687794] | -0.77% | -1.36% | 
NCC[C@H](O)C(=O)N[C@@H]1C[C@H](N)[C@@H](O[C@H]2O[C@H](CN)[C@@H](O)[C@H](O)[C@H]2O)[C@H](O)[C@H]1O[C@H]1O[C@H](CO)[C@@H](O)[C@H](N)[C@H]1O [MMV687796, Amikacin, reference compound] |  |  | cytotoxicity at 10 µM [3]: -1.34%; cytotoxicity at 10 µM [4]: -4.62%
CC(C)/N=c1\cc2n(-c3ccc(Cl)cc3)c3ccccc3nc-2cc1Nc1ccc(Cl)cc1 [MMV687800, Clofazimine, reference compound] |  |  | cytotoxicity at 10 µM [3]: 26.6%; PGI release, % of Tx-100 control at 10 µM (120 h, confirmatory screening at 10 µM in triplicates, 5 days of incubation, values as % of Tx-100 control, read-out: PGI release, % of Tx-100 control, average, 5d): -0.59%; cytotoxicity at 10 µM [4]: 65.6%; PGI release, % of Tx-100 control at 10 µM (288 h, confirmatory screening at 10 µM in triplicates, 12 days of incubation, values as % of Tx-100 control, read-out: PGI release, % of Tx-100 control, average, 12d): 3.89%
CC[C@@H](CO)NCCN[C@@H](CC)CO [MMV687801, Ethambutol, reference compound] |  |  | cytotoxicity at 10 µM [3]: -0.84%; cytotoxicity at 10 µM [4]: 0.29%
CC(=O)NC[C@H]1CN(c2ccc(N3CCOCC3)c(F)c2)C(=O)O1 [MMV687803, Linezolid, reference compound] |  |  | cytotoxicity at 10 µM [3]: -0.58%; cytotoxicity at 10 µM [4]: 0.38%
CN1CCN(CCCOc2ncc(Nc3ncc(-c4ccc(C(F)(F)F)c(F)c4)nc3C(N)=O)cn2)CC1 [MMV687812] | 18.86% | 22.66% | PGI release, % of Tx-100 control, average, 5d [1]: 3.65%; PGI release, % of Tx-100 control, average, 12d [2]: 4.79%
O=C1O[C@@H](COc2ccon2)CN1c1cc(F)c(C2=CCN(Cc3ccccc3)CC2)c(F)c1 [MMV687813] | -0.66% | -1.17% | 
Cc1cccc(-c2nc(Nc3ccncn3)c3sccc3n2)n1 [MMV688122] | 0.14% | 95.49% | PGI release, % of Tx-100 control, average, 5d [1]: -0.80%; PGI release, % of Tx-100 control, average, 12d [2]: -0.86%
CCc1ccc(S(=O)(=O)Nc2cc(CN3CCN(CCC(C)C)CC3)ccc2C)cc1 [MMV688124] | -0.0233% | -0.17% | 
CCCc1ccc(S(=O)(=O)Nc2ccc(CN3CCN(CC4CC4)CC3)cc2)cc1 [MMV688125] | -0.08% | -1.69% | 
c1ccc(Oc2ccc(-c3cncc(-c4ccc5[nH]ccc5c4)n3)cc2)cc1 [MMV688178] | 0.34% | 0.47% | 
NC(N)=Nc1ccc(-c2ccc(-c3ccc(N=C(N)N)cc3Cl)o2)c(Cl)c1 [MMV688179] | -4.57% | 19.83% | 
Cc1nn(C)c(C)c1NS(=O)(=O)c1c(Cl)cc(-c2ccnc(N3CCNCC3)c2)cc1Cl [MMV688180] | -0.14% | 0.11% | 
C[C@]1(COc2ccc(N3CCC(Oc4ccc(OC(F)(F)F)cc4)CC3)cc2)Cn2cc([N+](=O)[O-])nc2O1 [MMV688262, Delaminid, reference compound] | -3.74% | -0.38% | 
COc1ccc(-c2cnc3cnc(-c4cccc(OC(C)C)c4)cn23)cc1 [MMV688270] | 0.02% | -0.02% | 

SMILES | PGI release, % of the Tx-100 control, 5d (5 days of incubation) | PGI release, % of the Tx-100 control, 12d (12 days of incubation) | further results
N=C(N)Nc1ccc(-c2ccc(-c3ccc(N=C(N)N)c(Cl)c3)o2)cc1Cl [MMV688271] | 9.82% | 13.94% | 
Nc1ccc2ncnc(Nc3ccc(OCc4cccc(F)c4)c(Cl)c3)c2c1 [MMV688273] | -1.47% | -4.16% | 
O=C(CN1CCOCC1)Nc1ccc2ncnc(Nc3ccc(OCc4cccc(F)c4)c(Cl)c3)c2c1 [MMV688274] | -0.59% | -0.94% | 
CC1=Nc2ccc(Cl)cc2C(O)(c2ccc(C)cc2)N1CCN1CCCCC1 (stereo not drawn) [MMV688279] | 0.73% | 1.56% | 
CN1CCN(S(=O)(=O)c2ccc(-c3ccc4c(Nc5ncc(Cl)cn5)ccnc4c3)cc2)CC1 [MMV688283] | 0.90% | -1.47% | 
COc1ccc(-c2nnc3ccc(-c4cccc(C(C)C)c4)cn23)cc1OC [MMV688313] | -0.11% | -3.88% | 
CC(=O)NC[C@H]1CN(c2ccc(-c3ccc(CNCc4cnn[nH]4)cc3)c(F)c2)C(=O)O1 [MMV688327, Radezolid, reference compound] |  |  | cytotoxicity at 10 µM [3]: -0.89%; cytotoxicity at 10 µM [4]: -1.52%
CC(=O)N1CCN(c2ccc(Oc3ccc(Cl)cc3O)cc2)CC1 [MMV688330] | -0.72% | -5.52% | 
Nc1nc(N)c2c3c(sc2n1)CN(Cc1ccccc1)CC3 [MMV688345] | -0.50% | -0.61% | 
COC(=O)c1ccc(F)cc1NS(=O)(=O)c1cccc(-c2cnn(Cc3ccccc3)c2)c1 [MMV688350] | -0.16% | 0.44% | 
O=C1[C@@H](Oc2ccccc2)[C@@H](c2ccc(Cl)cc2)N1CCn1cnc2c(NCc3ccccc3)ncnc21 [MMV688352] | 2.57% | 3.05% | 
c1cc(C2=NCCN2)cc(-c2cc(-c3ccc(C4=NCCN4)cc3)no2)c1 [MMV688361] | -0.63% | -1.49% | 
COc1cc(C2=NCCN2)cc2cc(-c3ccc(C4=NCCN4)cc3)oc12 [MMV688362] | 0.03% | 0.64% | 
CC(C)(C)OC(=O)N1CCC(Cn2nc(-c3cnc4ccccc4c3)c3c(N)ncnc32)CC1 [MMV688364] | 0.11% | -0.13% | 
NCCN(C(=O)c1ccc(Cl)cc1Cl)c1ccc(OCc2ccc(Cl)cc2)cc1 [MMV688371] | 45.68% | 52.47% | PGI release, % of Tx-100 control, average, 5d [1]: 3.16%; PGI release, % of Tx-100 control, average, 12d [2]: 3.77%
O=C(Nc1ccc(F)c(-c2nc3ncc(-c4ccccc4)cc3[nH]2)c1)N1CCCC1 [MMV688372] | 1.21% | 0.82% | 
COc1cc(C2=NCCN2)ccc1-c1cn(-c2cccc(C3=NCCN3)c2)nn1 [MMV688407] | 1.48% | 1.29% | 
CC1=Nc2ccc(Cl)cc2C(c2ccccc2)N1CCNC(=O)CN(C)C (stereo not drawn) [MMV688410] | 0.08% | -1.09% | 
Nc1ncnc2c1c(-c1cnc3ccccc3c1)nn2CC1CCNCC1 [MMV688411] | -0.63% | -1.19% | 
CO[C@@H]1CN(c2ccc(C#CC3(O)CN4CCC3CC4)c(Cc3ccccc3)n2)C[C@H]1O (stereo partly drawn) [MMV688415] | 3.28% | -0.74% | 
CC(C)(C)OC(=O)N1CCN(c2nccc(-c3ccc(-c4ccc(Cl)cc4)s3)n2)CC1 [MMV688416] | -0.30% | -2.84% | 
CC(C)n1nc(-c2cc3c(Cl)cccc3[nH]2)c2c(N)ncnc21 [MMV688417] | -4.81% | -2.43% | 
Cn1ccnc1CNCCS(=O)(=O)c1cccc(Nc2ccc(-c3cccc(F)c3)cn2)c1 [MMV688466] | -0.60% | -2.11% | 
